Measured values from patent publication US12024584B2, “Methods and compositions for polyurethane dispersions using caprolactam-derived solvents” (AdvanSix Resins & Chemicals LLC, priority 2017, dated 2024).

Experiments:
[1] = Minimum film forming temperature, non-pigmented resin + coalescing agent; type: physicochemical; details: resin with 5 wt. % coalescing agent, film thickness 350 μm
[2] = MFFT of pigmented and complete PUDs; type: physicochemical; details: pigmented and complete PUD, 3 wt. % coalescing agent
From the text: (§1) Tests were first performed to determine the coalescing agent level for pigmented and complete PUD formulations in order to achieve the optimum film formation. Complete paints were mixed with 0.7 wt. %, 1.5 wt. %, 3.0 wt. % and 5.0 wt. % of coalescing agents and applied on tin plated steel at a wet film thickness of around 250 μm, where the weight percentage was based on the pure polyurethane dispersion resins. […] Based on the observations, 3 wt. % dosage of coalescing agent was selected. Complete PUD formulations with pigments, fillers and other additives were prepared as per Table 5, and used to test and determine the coalescing properties of the caprolactam-derived solvents and other known coalescing agents. The standard test for determining this temperature involves using a MFFT-BAR, as specified by standards ASTM D 2354 and ISO 2115. In general, the MFFT of a paint or coating is reduced temporarily by the use of coalescing agents.

[3] = Gloss of pigmented and complete PUDs (ISO 2813); type: physicochemical
From the text: as §1, with “agents.” for “agents. The standard test for determining this temperature involves using a MFFT-BAR, as specified by standards ASTM D 2354 and ISO 2115. In general, the MFFT of a paint or coating is reduced temporarily by the use of coalescing agents.”
(§2) Gloss measurements serve as an indicator of the paints surface quality. Gloss and color measurements were determined according to the ISO 2813 standard and the ISO 7724-2 standard (SCI-D65/10°), respectively.

[4] = Viscosity and storage stability of pigmented PUD formulations; type: physicochemical; details: 1 month at 50° C., FIG. 5
From the text: as §1, with “agents.” for “agents. The standard test for determining this temperature involves using a MFFT-BAR, as specified by standards ASTM D 2354 and ISO 2115. In general, the MFFT of a paint or coating is reduced temporarily by the use of coalescing agents.”
Dispersions and emulsions tend to aggregate polyurethane particles during storage. One way to determine the stability of a polyurethane dispersion is to measure viscosity of the polyurethane dispersion over time. Viscosity is a measure of a solvent's resistance to gradual deformation by shear stress or tensile stress. […] The storage stability of the dispersions was evaluated based on variations between viscosity measurements performed on paints shortly after their preparation and after their storage for either one month at room temperature or one month at 50° C.

[5] = Persoz hardness of pigmented and complete PUDs; type: physicochemical; details: pigmented, in s
From the text: as §1, with “agents.” for “agents. The standard test for determining this temperature involves using a MFFT-BAR, as specified by standards ASTM D 2354 and ISO 2115. In general, the MFFT of a paint or coating is reduced temporarily by the use of coalescing agents.”
Persoz hardness measurements were performed on pigmented paints that were applied on tin plated steel using a doctor blade applicator at a dry film thickness (DFT) around 50 μm according to the ISO 1522 standard. […] For instance, the 28 day hardness for N-ethyl caprolactam (NE CPL) was approximately 104.6±0.5, while the 28 day hardness for NMP was approximately 108.8±2.4, and the 28 day hardness for ester alcohol and N-methyl caprolactam (NM CPL) were approximately 124.8±1 and 126.0±1, respectively, while the 28 day hardness for NBP was approximately 135.8±5.

[6] = Freeze and thaw stability (ASTM D2243-95); type: physicochemical
Protocol: Water-based emulsions and dispersions are susceptible to irreversible coagulation by freezing. Freeze and thaw stability was tested according the ASTM D2243-95 standard.
For these examples, pigmented PUD paints were subject to freeze-thaw cycles of 16 hours at −20° C. and 8 hours at room temperature and subsequently subject to visible observations. The paints were then applied on a tin plated steel plate at a thickness of approximately 200 μm for observing film properties.
In addition, the freeze-thaw stability was best for caprolactam-derived coalescing agents (NM CPL) and the blends even after subject to five cycles (see FIG. 9). In particular, the paints were visually observed after each cycle to see if there was any viscosity change, i.e., thickening of the paint. Then, the dry films of the coatings were observed visually.

Open time (ASTM D7488) = type: physicochemical; details: ASTM D7488, 23±2° C., 50±5% RH, wet film 200 μm
From the text: as §1, with “agents.” for “agents. The standard test for determining this temperature involves using a MFFT-BAR, as specified by standards ASTM D 2354 and ISO 2115. In general, the MFFT of a paint or coating is reduced temporarily by the use of coalescing agents.”
Open times were determined according to the ASTM D7488 “Test Method for Open Time of Latex” standard and the tests were performed under controlled temperature and humidity (23±2° C. and 50±5% RH). In general, the paints were applied at a wet film thickness of 200 μm on contrasting sealed charts by means of a doctor blade applicator, and “X” marks are made immediately with the wide curved end of a wooden paint brush. After a determined time internal, the brush was dipped into the paint to be tested and brushing of the X-marks was started in perpendicular direction to the initial drawdown using 10 strokes back and forth to work the paint under test into the drawdown area. This procedure is repeated after several time intervals. After their complete drying (1 week), the painted panels are observed by two different observers and the time for which the “X” marks to become visible is considered as the open time.

[7] = Color of pigmented and complete PUDs (ISO 7724-2); type: physicochemical
From the text: as §1, with “agents.” for “agents. The standard test for determining this temperature involves using a MFFT-BAR, as specified by standards ASTM D 2354 and ISO 2115. In general, the MFFT of a paint or coating is reduced temporarily by the use of coalescing agents.”
as §2

[8] = Drying time (ASTM D1640 / ASTM D5895); type: physicochemical; details: 200 μm humid film; blends by ASTM D1640, single solvents by ASTM D5895
From the text: as §1, with “agents.” for “agents. The standard test for determining this temperature involves using a MFFT-BAR, as specified by standards ASTM D 2354 and ISO 2115. In general, the MFFT of a paint or coating is reduced temporarily by the use of coalescing agents.”
The drying times for the pigmented PUD formulations were determined according to the ASTM D1640 “Standard Test Methods for Drying, Curing, or Film Formation of Organic Coatings” standard or the ASTM D5895 “Standard Test Methods for Evaluating Drying or Curing During Film Formation of Organic Coatings Using Mechanical Recorders” standard. Four stages of drying can be identified depending on the trace left by the needle on the paint surface: Stage 1—Set-to-Touch time, Stage 2—Tack-Free time, Stage 3—Dry-Hard time, and Stage IV—Dry trough time. However, Stage IV is often hard to detect.
In general, the paints were applied at a humid film thickness of 200 μm by means of a bar coater on a Leneta sheet and the needle rate was set at 60 cm/hr.
For the present examples, the drying times for the 2:1 A:B, 1:1 A:B, and 1:2 A:B solvents were determined using the ASTM D1640 standard, and the drying times for NM CPL, NE CPL, NMP, NBP, ester amide, and ester alcohol were determined using the ASTM D5895 standard.

[9] = Solubility of DMPA in solvents
Protocol: Solubility was tested between the various solvents to determine their applicability in the PUD manufacturing processes. Solubility is the amount of a substance (coalescing agent) that dissolves in a unit volume of a liquid substance (solvent) to form a saturated solution under specified conditions of temperature and pressure. For the examples, amounts of […] (DMPA) were dissolved in each solvent.

[10] = Scrub resistance of pigmented and complete PUDs (ISO 11998); type: physicochemical
From the text: as §1, with “agents.” for “agents. The standard test for determining this temperature involves using a MFFT-BAR, as specified by standards ASTM D 2354 and ISO 2115. In general, the MFFT of a paint or coating is reduced temporarily by the use of coalescing agents.”
Scrub resistance was tested according the ISO 11998 “Paints and Varnishes—Determination of Wet-Scrub Resistance and Cleanability of Coatings” standard. In this testing method, the paint was applied on a test panel (Leneta sheet) using a film applicator at the specific gap clearance. After drying and conditioning for four weeks at room temperature the coated panel was weighed and subject to 200 wet-scrub cycles in a scrub resistance machine. The panel was then washed, dried and weighed to determine the loss from which the mean loss in film thickness was calculated. […] For instance, N-methyl caprolactam (NM CPL), N-ethyl caprolactam (NE CPL), and blends thereof in the ratios of 1:2 and 1:1, all had less loss of thickness (2.035 μm, 1.797 μm, 1.39 μm, and 1.64 μm, respectively) as compared to NMP (2.090 μm) and NBP (2.213 μm).

MFFT [1]: −0.8±0.4 °C
MFFT [2]: −0.8 °C
Gloss 20° ([3]; 20°): 1.3 ± 0
Gloss 60° ([3]; 60°): 3.0 ± 0
Gloss 85° ([3]; 85°): 23.2 ± 0.2
storage stability (viscosity buildup) [4]: low viscosity buildup
Persoz Hardness ([5]; 1 Day): 95.2 ± 1
Persoz Hardness ([5]; 7 Days): 101.2 ± 3
Persoz Hardness ([5]; 14 Days): 122.0 ± 3
Persoz Hardness ([5]; 21 Days): 124.0 ± 3
Persoz Hardness ([5]; 28 Days, listed as NM CPL): ~126.0±1
Persoz Hardness ([5]; 28 Days, listed as NMCPL): 126.0 ± 1
Open Time (Open time (ASTM D7488)): 14 min
Color (Black background) L* ([7]; Black background): 94.09
Color (Black background) a* ([7]; Black background): −0.97
Color (Black background) b* ([7]; Black background): 2.25
Color (White background) L* ([7]; White background): 95.07
Color (White background) a* ([7]; White background): −0.52
Color (White background) b* ([7]; White background): 3.32
effect on color (yellowing) ([7]; pigmented PUD): no yellowing
Drying Time [8]: 11.6 min
Solubility [9]: 27.5 g/100 g of Solvent
Wt. Loss ([10]; 200 wet-scrub cycles): 3.763 g/m^2
Loss of thickness after 200 wet-scrub cycles ([10]; calculated from weight loss): 2.035 µm
Structure (SMILES): CN1CCCCCC1=O [N—MeCPL, N-methyl caprolactam]
freeze-thaw stability and film properties (comparison) ([6]; FIGS. 8 and 9): better freeze-thaw stability and film properties than NBP and ester alcohol
freeze-thaw stability: viscosity change (thickening of the paint) ([6]; cycles of 16 hours at −20° C. and 8 hours at room temperature): no such viscosity change even after five freeze-thaw cycle
